Data set [1] is described as follows: Mouse oral cassette pharmacokinetics. It counts as in vivo, male CD-1 mice. How it is done:
Mouse Oral Cassette Pharmacokinetics
Test compounds (1-3 compounds per cassette) were formulated in solution formulations (10 w/v % Captisol in 50 mM Citrate buffer) and administered orally at 30 mg-eq./kg each compound to a group of four male CD-1 mice. The test articles were administrated by oral gavage at a dose volume of 10 mL-eq/kg.
Blood samples were collected at 0.5, 1, 3, 6, 8, and 24 hours post dose into K2EDTA tubes and stored on wet ice until processed. Whole blood was processed to plasma by centrifugation (3500 rpm for 10 minutes at 5° C.) within 30 minutes of collection. Plasma samples were placed in Micronic 96 well tubes and stored at −80° C. until transferred. Plasma concentration of the test compounds was determined by LC-MS/MS. Pharmacokinetic parameters were estimated using non-compartment model analysis. The maximum observed concentration (Cmax) and area under the curve from time of dosing to last measured concentration (AUClast) were calculated and reported.

The target in another data set is GDP-loaded KRAS G12D (Homo sapiens, UniProt P01116, G12D). The data set can be described thus: KRAS G12D (GDP) biochemical assay, TR-FRET probe displacement. Format: binding. To be noted: 0.5 nM enzyme, 30 min pre-incubation, 2 h incubation, TR-FRET ratio; read-out: G12D IC50. The protocol:
Example A. KRAS G12D (GDP) Biochemical Assay
Compounds were tested for binding to GDP-loaded KRAS G12D in a 384-well assay format using a TR-FRET probe displacement assay in buffer consisting of 50 mM Hepes (pH 7.4), 150 mM NaCl, 5 mM MgCl2 and 0.005% Tween-20. […] Compounds were serially diluted (1:3) in DMSO. The LabCyte ECHO Acoustic dispenser system was used to pre-spot the assay plates (384-well Non-Binding Surface plates, Corning, Catalog #3824) with 50 nL of compound. The compounds were pre-incubated with 5 μL of 2× final enzyme concentration for 30 minutes before adding 5 μL of 2× final concentration of Eu-streptavidin and TR-FRET probe (10 μL final reaction volume). The plates were incubated at room temperature for 2 hours before measuring TR-FRET ratio on the Envision plate reader. IC50 values were defined as the compound concentration that causes a 50% decrease in TR-FRET ratio and were calculated using a sigmoidal dose-response model to generate curve fits.

Another data set deals with GP2D (KRAS G12D) cells. The data set can be described thus: 2D cell viability assay (CellTiter-Glo). To be noted: GP2D cells, 4 days, CellTiter-Glo luminescence, read-out: G12D 2D EC50. Format: cell-based. In a few lines: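 Viability was read by CellTiter-Glo after 4 days at 37 °C of 2D culture of KRAS G12D GP2D cells (1000/well, RPMI, 10% FBS) on pre-spotted threefold compound dilutions. EC50 was fitted with a sigmoidal dose-response model as the point of half-maximal luminescence loss.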

The mark [2] stands for this setting: oral gavage, 30 mg-eq./kg each compound, cassette, plasma, AUClast of parent.
[3] abbreviates: male, CD-1, mouse, in vivo, po, 30 mg/kg.

Read-outs that look alike come from different tables or passages of the source.

For “4-(((1S,4R,11R,14aR)-11-(8-ethynyl-7-fluoro-3-hydroxynaphthalen-1-yl)-10,12-difluoro-8-(((2R,7aS)-2-fluorotetrahydro-1H-pyrrolizin-7a(5H)-yl)methoxy)-1,2,3,4,5,13,14,14a-octahydro-1,4-epiminoazepino[1′,2′:1,71azepino[2,3,4-de]quinazolin-15-yl)methyl)-5-methyl-1,3-dioxol-2-one [Example 37]”, the “Mouse Parent AUC” value in data set [1] (setting [2]) was 0.13 µM·h. Further, the IC50 on GDP-loaded KRAS G12D was found to be 1 nM. Also, the EC50 in the data set with GP2D (KRAS G12D) cells came out at 0.23 nM.
As to “5-ethynyl-6-fluoro-4-((7R,8S,8aS,9S,12R)-4-fluoro-2-(((2R,7aS)-2-fluorotetrahydro-1H-pyrrolizin-7a(5H)-yl)methoxy)-7,8-dimethyl-14-((5-methyl-2-oxo-1,3-dioxol-4-yl)methyl)-7,8,8a,9,10,11,12,13-octahydro-1,3,6,13a,14-pentaaza-9,12-methanonaphtho[1,8-ab]heptalen-5-yl)naphthalen-2-yl isobutyrate [Example 31]”, the “Mouse Parent AUC” value in data set [1] (setting [2]) amounted to 0.99 µM·h. For the same compound, in the data set with GP2D (KRAS G12D) cells, the EC50 was 0.2 nM.
In the case of `Cc1cc(N)nc(-c2c(Cl)c3c4c(nc(OC[C@@]56CCCN5C[C@H](F)C6)nc4c2F)N2C[C@H]4CC[C@@H]([C@H]2CC3)N4Cc2oc(=O)oc2C)c1C(F)(F)F` (atropisomer, axis not shown; (aR)) [Example 3, 4-(((1R,4S,14aR)-11-((R)-6-amino-4-methyl-3-(trifluoromethyl)pyridin-2-yl)-12-chloro-10-fluoro-8-(((2R,7aS)-2-fluorotetrahydro-1H-pyrrolizin-7a(5H)-yl)methoxy)-1,2,3,4,5,13,14,14a-octahydro-1,4-epiminoazepino[1′,2′:1,7]azepino[2,3,4-de]quinazolin-15-yl)methyl)-5-methyl-1,3-dioxol-2-one], the “Mouse Parent AUC” value in data set [1] (setting [3]) is 5.7 µM·h. Further, the IC50 on GDP-loaded KRAS G12D was determined as 4.7 nM. Besides, the EC50 in the data set with GP2D (KRAS G12D) cells (96 h) was determined as 0.92 nM.
Regarding `C#Cc1c(F)ccc2cc(O)cc(-c3nc4c5c(nc(OC[C@@]67CCCN6C[C@H](F)C7)nc5c3F)N3C[C@H]5CC[C@H](N5)[C@@H]3[C@@H](C)C4)c12` [Comp. Ex. 64, 5-ethynyl-6-fluoro-4-((5S,5aS,6S,9R)-1-fluoro-12-(((2R,7aS)-2-fluorotetrahydro-1H-pyrrolizin-7a(5H)-yl)methoxy)-5-methyl-4,5,5a,6,7,8,9,10-octahydro-3,10a,11,13,14-pentaaza-6,9-methanonaphtho[1,8-ab]heptalen-2-yl)naphthalen-2-ol, reference compound], the “Mouse Parent AUC” value in data set [1] (setting [3]) was found to be 0.83 µM·h.
Still for that read-out and setting: the result for `C#Cc1c(F)ccc2cc(O)cc(-c3nc4c5c(nc(OC[C@@]67CCCN6C[C@H](F)C7)nc5c3F)N3C[C@H]5CC[C@H](N5)[C@@H]3[C@@H](C)[C@H]4C)c12` [Comp. Ex. 87, reference compound] reads 0.9 µM·h.
On to `C#Cc1c(F)ccc2cccc(-c3nc4c5c(nc(OC[C@@]67CCCN6C[C@H](F)C7)nc5c3F)N3C[C@H]5CC[C@@H]([C@H]3CCC4)N5Cc3oc(=O)oc3C)c12` [Example 1, 4-(((6aR,7S,10R)-2-(8-ethynyl-7-fluoronaphthalen-1-yl)-1-fluoro-13-(((2R,7aS)-2-fluorotetrahydro-1H-pyrrolizin-7a(5H)-yl)methoxy)-5,6,6a,7,8,9,10,11-octahydro-4H-3,11a,12,14,15-pentaaza-7,10-methanocyclohepta[4,5]cycloocta[1,2,3-de]naphthalen-15-yl)methyl)-5-methyl-1,3-dioxol-2-one], for which the “Mouse Parent AUC” value in data set [1] (setting [3]) was found to be 3.6 µM·h. In addition, at GDP-loaded KRAS G12D, the IC50 is 2.5 nM. Moreover, the 50% effective concentration (EC50) in the data set on GP2D (KRAS G12D) cells (96 h) turned out to be 5.8 nM.
On the same counts, the results for `C#Cc1c(F)ccc2cc(O)cc(-c3nc4c5c(nc(OC[C@@]67CCCN6C[C@H](F)C7)nc5c3F)N3C[C@H]5CC[C@@H]([C@H]3CCC4)N5Cc3oc(=O)oc3C)c12` [Example 8, 4-(((6aR,7S,10R)-2-(8-ethynyl-7-fluoro-3-hydroxynaphthalen-1-yl)-1-fluoro-13-(((2R,7aS)-2-fluorotetrahydro-1H-pyrrolizin-7a(5H)-yl)methoxy)-5,6,6a,7,8,9,10,11-octahydro-4H-3,11a,12,14,15-pentaaza-7,10-methanocyclohepta[4,5]cycloocta[1,2,3-de]naphthalen-15-yl)methyl)-5-methyl-1,3-dioxol-2-one] are 1.1 µM·h, 4.8 nM and 0.49 nM.
Take `C#Cc1c(F)ccc2cc(O)cc(-c3c(F)c4c5c(nc(OCC67CCCN6CC(F)C7)nc5c3F)N3CC5CCC(C3CCC4)N5Cc3oc(=O)oc3C)c12` [Example 28, 4-(((1S,4R,11R,15aR)-11-(8-ethynyl-7-fluoro-3-hydroxynaphthalen-1-yl)-10,12-difluoro-8-(((2R,7aS)-2-fluorotetrahydro-1H-pyrrolizin-7a(5H)-yl)methoxy)-2,3,4,5,13,14,15,15a-octahydro-1H-1,4-epiminoazepino[1′,2′:1,8]azocino[2,3,4-de]quinazolin-16-yl)methyl)-5-methyl-1,3-dioxol-2-one]: the “Mouse Parent AUC” value in data set [1] (setting [2]) worked out at 0.7 µM·h. In addition, the EC50 with GP2D (KRAS G12D) cells is 0.18 nM.
`C#Cc1c(F)ccc2cc(O)cc(-c3nc4c5c(nc(OC[C@@]67CCCN6C[C@H](F)C7)nc5c3F)N3C[C@H]5CC[C@@H]([C@@H]3[C@@H](C)[C@H]4C)N5Cc3oc(=O)oc3C)c12` [Example 29, 4-(((7R,8S,8aS,9S,12R)-5-(8-ethynyl-7-fluoro-3-hydroxynaphthalen-1-yl)-4-fluoro-2-(((2R,7aS)-2-fluorotetrahydro-1H-pyrrolizin-7a(5H)-yl)methoxy)-7,8-dimethyl-7,8,8a,9,10,11,12,13-octahydro-1,3,6,13a,14-pentaaza-9,12-methanonaphtho[1,8-ab]heptalen-14-yl)methyl)-5-methyl-1,3-dioxol-2-one]: the “Mouse Parent AUC” value in data set [1] (setting [3]) worked out at 0.75 µM·h. For the same compound, the EC50 in the data set with GP2D (KRAS G12D) cells (96 h) amounted to 0.13 nM.
On the same counts, the results for `C#Cc1c(F)ccc2cc(OC(=O)C(C)C)cc(-c3nc4c5c(nc(OC[C@@]67CCCN6C[C@H](F)C7)nc5c3F)N3C[C@H]5CC[C@@H]([C@H]3CCC4)N5Cc3oc(=O)oc3C)c12` [Example 30, 5-ethynyl-6-fluoro-4-((6aR,7S,10R)-1-fluoro-13-(((2R,7aS)-2-fluorotetrahydro-1H-pyrrolizin-7a(5H)-yl)methoxy)-15-((5-methyl-2-oxo-1,3-dioxol-4-yl)methyl)-5,6,6a,7,8,9,10,11-octahydro-4H-3,11a,12,14,15-pentaaza-7,10-methanocyclohepta[4,5]cycloocta[1,2,3-de]naphthalen-2-yl)naphthalen-2-yl isobutyrate] are 0.66 µM·h and 0.22 nM.
Take `C#Cc1c(F)ccc2cc(N)cc(-c3nc4c5c(nc(OC[C@]6(C)CN(C)CC[C@@H]6C(F)F)nc5c3F)N3C[C@H]5CC[C@H](N5)[C@H]3CCC4)c12` [Example 76-P, 4-((6aR,7S,10R)-13-(((3S,4S)-4-(difluoromethyl)-1,3-dimethylpiperidin-3-yl)methoxy)-1-fluoro-5,6,6a,7,8,9,10,11-octahydro-4H-3,11a,12,14,15-pentaaza-7,10-methanocyclohepta[4,5]cycloocta[1,2,3-de]naphthalen-2-yl)-5-ethynyl-6-fluoronaphthalen-2-amine]: the half-maximal inhibitory concentration (IC50) at GDP-loaded KRAS G12D amounted to 0.07 nM. Also, the EC50 with GP2D (KRAS G12D) cells (96 h) worked out at 0.27 nM.

(Values after US12448400B2, “KRAS G12D modulating compounds” (priority 2023, dated 2025).)
